The values below come from patent US20260207578A1, “COMPOUND BASED ON SULFUR/OXYGEN SUBSTITUTED GLUTARIMIDE-BASED ISOINDOLINONE SKELETON AND USE THEREOF” (Gluetacs Therapeutics (Shanghai) Co., LTD., priority 2022, published 2026).

The IC50 is the point on the concentration scale where inhibition reaches its midpoint.

The target in experiment [1] is T1, human Cereblon WT GST-tagged protein (Homo sapiens, UniProt Q96SW2).
T1 construct: purchased CISBIO 64BDCRBNPEH
Kind of experiment: CRBN-binding affinity, HTRF (CEREBLON BINDING kit). Particulars: displacement of Thalidomide-Re reagent, 3 hours at room temperature. An outline of the steps:
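Compounds displace a thalidomide-Re tracer from GST-tagged human Cereblon WT, detected with an Eu-labelled anti-GST antibody by time-resolved fluorescence. Signal at 620 nm was normalised against solvent and blank controls.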
(In general: Time-resolved FRET reads energy transfer from a long-lived donor to a nearby acceptor.)

Experiment [2] addresses T2, Wee1 (Homo sapiens, UniProt P30291+Q96SW2).
T2 construct: endogenous in cells; host or cells: human PBMCs (Milecell Biotechnologies)
Kind of experiment: Western-blot assay, substrate protein in hPBMCs. Type of experiment: cell-based. Particulars: hPBMC cells, 24 hours, tested at 50 nM and 500 nM, table does not say which. The method, boiled down:
(§1)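 Thawed hPBMCs, 1×10^6 cells/mL; 24 h compound; RIPA + phosphatase inhibitor lysis, BCA-normalised loading, SDS-PAGE, NC transfer, immunodetection. Bands vs internal control → % remaining; DC50 = concentration at 50% of DMSO band intensity.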

Experiment [3] addresses T3, IKZF2 (Homo sapiens, UniProt Q96SW2+Q9UKS7).
T3 construct: endogenous in cells; host or cells: human PBMCs (Milecell Biotechnologies)
Kind of experiment: Western-blot assay, substrate protein in hPBMCs. Type of experiment: cell-based. Particulars: hPBMC cells, 24 hours, tested at 50 nM and 500 nM, table does not say which. The method, boiled down:
as §1

Experiment [4] deals with T4, GSPT1 (Homo sapiens, UniProt P15170+Q96SW2).
T4 construct: endogenous in cells; host or cells: human PBMCs (Milecell Biotechnologies)
T4 sequence (P15170 whole entry): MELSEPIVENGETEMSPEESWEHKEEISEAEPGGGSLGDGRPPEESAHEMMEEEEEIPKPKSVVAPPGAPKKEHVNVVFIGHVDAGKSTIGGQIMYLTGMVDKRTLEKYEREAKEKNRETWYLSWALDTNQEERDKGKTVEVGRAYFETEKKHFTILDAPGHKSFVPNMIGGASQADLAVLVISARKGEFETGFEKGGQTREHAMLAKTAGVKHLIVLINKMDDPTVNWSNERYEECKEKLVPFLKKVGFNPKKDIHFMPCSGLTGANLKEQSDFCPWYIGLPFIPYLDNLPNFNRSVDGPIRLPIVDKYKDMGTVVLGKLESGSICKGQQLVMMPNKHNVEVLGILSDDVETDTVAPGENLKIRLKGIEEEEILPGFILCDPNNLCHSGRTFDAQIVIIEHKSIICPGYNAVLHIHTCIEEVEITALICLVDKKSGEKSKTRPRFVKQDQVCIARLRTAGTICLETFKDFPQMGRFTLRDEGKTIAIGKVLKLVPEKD
T4 sequence (Q96SW2 whole entry): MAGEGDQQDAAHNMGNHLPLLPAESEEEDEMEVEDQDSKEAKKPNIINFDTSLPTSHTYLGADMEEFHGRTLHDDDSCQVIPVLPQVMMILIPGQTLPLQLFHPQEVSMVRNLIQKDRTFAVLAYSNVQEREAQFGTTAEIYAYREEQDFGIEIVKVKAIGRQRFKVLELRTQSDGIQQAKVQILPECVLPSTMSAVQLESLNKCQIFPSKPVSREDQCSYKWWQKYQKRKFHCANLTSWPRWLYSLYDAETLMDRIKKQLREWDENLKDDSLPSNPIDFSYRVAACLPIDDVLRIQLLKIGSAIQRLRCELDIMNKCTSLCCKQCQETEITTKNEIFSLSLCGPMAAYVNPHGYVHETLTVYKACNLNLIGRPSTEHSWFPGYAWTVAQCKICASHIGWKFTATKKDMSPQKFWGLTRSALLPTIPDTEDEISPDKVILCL
T4 sequence (Q16531 whole entry partner): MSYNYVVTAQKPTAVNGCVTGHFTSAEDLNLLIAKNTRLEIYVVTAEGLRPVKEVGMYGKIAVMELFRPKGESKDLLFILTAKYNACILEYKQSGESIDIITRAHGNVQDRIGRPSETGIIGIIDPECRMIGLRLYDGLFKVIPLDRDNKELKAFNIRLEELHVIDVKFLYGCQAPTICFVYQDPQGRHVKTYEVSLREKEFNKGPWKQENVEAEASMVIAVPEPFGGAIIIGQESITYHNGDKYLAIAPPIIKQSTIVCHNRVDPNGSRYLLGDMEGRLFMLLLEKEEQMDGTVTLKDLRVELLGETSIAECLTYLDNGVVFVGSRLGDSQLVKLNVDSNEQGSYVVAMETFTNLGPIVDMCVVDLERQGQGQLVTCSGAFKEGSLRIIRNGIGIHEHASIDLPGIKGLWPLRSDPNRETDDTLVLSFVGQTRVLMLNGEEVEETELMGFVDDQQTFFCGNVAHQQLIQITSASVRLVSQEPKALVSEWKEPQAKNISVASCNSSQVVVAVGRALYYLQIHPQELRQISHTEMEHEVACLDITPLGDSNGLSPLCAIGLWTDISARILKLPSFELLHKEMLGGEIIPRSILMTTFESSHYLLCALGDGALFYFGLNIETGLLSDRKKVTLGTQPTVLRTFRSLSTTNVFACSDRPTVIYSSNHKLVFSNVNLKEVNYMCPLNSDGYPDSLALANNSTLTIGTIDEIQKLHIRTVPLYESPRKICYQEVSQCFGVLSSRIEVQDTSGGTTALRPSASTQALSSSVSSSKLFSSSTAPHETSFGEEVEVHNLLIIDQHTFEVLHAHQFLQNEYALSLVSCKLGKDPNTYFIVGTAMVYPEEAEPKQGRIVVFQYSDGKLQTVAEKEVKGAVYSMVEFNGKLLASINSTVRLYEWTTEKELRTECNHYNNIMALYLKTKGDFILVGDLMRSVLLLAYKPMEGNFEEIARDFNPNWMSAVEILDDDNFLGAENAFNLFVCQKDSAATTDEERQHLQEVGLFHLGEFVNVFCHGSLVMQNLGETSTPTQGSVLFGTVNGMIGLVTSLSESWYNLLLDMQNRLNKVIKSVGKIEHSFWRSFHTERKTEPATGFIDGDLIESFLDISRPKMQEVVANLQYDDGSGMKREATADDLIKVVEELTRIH
In words: Western-blot assay, substrate protein in hPBMCs. It counts as cell-based. To be noted: hPBMC cells, 24 hours, tested at 50 nM and 500 nM, table does not say which. The method, boiled down: as §1

SMILES strings stand for the structures.

T1 sequence (Q96SW2 whole entry): as the sequence (Q96SW2 whole entry) above
T2 sequence (P30291 whole entry): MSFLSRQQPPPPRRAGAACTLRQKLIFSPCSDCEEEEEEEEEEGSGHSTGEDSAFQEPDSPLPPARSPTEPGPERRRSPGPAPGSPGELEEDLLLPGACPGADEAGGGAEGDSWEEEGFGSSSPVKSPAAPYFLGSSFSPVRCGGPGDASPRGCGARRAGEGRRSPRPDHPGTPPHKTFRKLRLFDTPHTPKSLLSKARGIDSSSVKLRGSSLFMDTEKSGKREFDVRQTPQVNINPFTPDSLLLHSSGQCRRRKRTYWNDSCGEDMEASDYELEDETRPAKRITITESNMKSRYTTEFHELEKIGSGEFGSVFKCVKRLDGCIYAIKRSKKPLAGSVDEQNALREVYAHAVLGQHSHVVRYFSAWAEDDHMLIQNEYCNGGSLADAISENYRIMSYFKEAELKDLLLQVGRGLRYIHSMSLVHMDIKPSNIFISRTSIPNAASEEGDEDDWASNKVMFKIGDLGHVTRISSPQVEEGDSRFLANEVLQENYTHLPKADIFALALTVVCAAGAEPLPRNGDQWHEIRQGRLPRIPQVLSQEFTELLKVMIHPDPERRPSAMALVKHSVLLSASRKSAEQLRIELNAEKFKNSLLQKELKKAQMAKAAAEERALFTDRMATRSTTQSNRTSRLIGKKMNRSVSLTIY
T2 sequence (Q96SW2 whole entry): as the sequence (Q96SW2 whole entry) above
T2 sequence (Q16531 whole entry partner): as the sequence (Q16531 whole entry partner) above
T3 sequence (Q9UKS7 whole entry): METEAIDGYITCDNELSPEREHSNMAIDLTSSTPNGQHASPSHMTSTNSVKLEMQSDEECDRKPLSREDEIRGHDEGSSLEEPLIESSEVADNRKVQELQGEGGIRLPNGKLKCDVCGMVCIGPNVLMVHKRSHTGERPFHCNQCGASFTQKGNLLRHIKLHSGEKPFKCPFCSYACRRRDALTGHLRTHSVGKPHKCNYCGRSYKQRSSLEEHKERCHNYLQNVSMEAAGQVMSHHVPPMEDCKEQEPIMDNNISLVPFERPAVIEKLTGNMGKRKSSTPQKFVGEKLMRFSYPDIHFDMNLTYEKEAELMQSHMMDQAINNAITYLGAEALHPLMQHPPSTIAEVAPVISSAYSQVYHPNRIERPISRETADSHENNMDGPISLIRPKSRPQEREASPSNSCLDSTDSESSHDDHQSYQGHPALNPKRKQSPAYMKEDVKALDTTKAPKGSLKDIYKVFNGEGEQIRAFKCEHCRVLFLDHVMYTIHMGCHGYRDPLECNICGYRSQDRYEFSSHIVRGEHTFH
T3 sequence (Q96SW2 whole entry): as the sequence (Q96SW2 whole entry) above
T3 sequence (Q16531 whole entry partner): as the sequence (Q16531 whole entry partner) above

On to `CC1(C)CCC(C(=O)N2CCC(Oc3ccc4c(c3)CN(C3CCC(=O)NC3=O)C4=O)CC2)=C(c2ccc(Cl)cc2)C1` (stereo not shown) [GT-06192, 3-(5-((1-(4′-chloro-5,5-dimethyl-3,4,5,6-tetrahydro-[1,1′-biphenyl]-2-carbonyl)piperidin-4-yl)oxy)-1-oxoisoindolin-2-yl)piperidine-2,6-dione], for which the IC50 in experiment [1] was in the range of 500 to 1000 nM. The “substrate protein remaining %” value in experiment [2] and in experiment [3] was “A (0%≤ substrate protein remaining % ≤80%)” each time.

As to `CC1(C)CC(c2ccc(Cl)cc2)=C(CN2CC(Oc3ccc4c(c3)CN(C3CCC(=O)NC3=O)C4=O)C2)CO1` (stereo not shown) [GT-06561, 3-(5-((1-((4-(4-chlorophenyl)-6,6-dimethyl-5,6-dihydro-2H-pyran-3-yl)methyl)azetidin-3-yl)oxy)-1-oxoisoindolin-2-yl)piperidine-2,6-dione], the IC50 in experiment [1] was less than 500 nM. For the same compound, the “substrate protein remaining %” value in experiment [2] and in experiment [3] was “A (0%≤ substrate protein remaining % ≤80%)” each time.

With `CC1(C)CCC(CN2CCCC(Sc3ccc4c(c3)CN(C3CCC(=O)NC3=O)C4=O)CC2)=C(c2ccc(Cl)cc2)C1` (stereo not shown) [GT-06641, 3-(5-((1-((4′-chloro-5,5-dimethyl-3,4,5,6-tetrahydro-[1,1′-biphenyl]-2-yl)methyl)azepan-4-yl)thio)-1-oxoisoindolin-2-yl)piperidine-2,6-dione], the IC50 in experiment [1] lay in the range of 1000 to 1900 nM. For the same compound, the “substrate protein remaining %” value in experiment [3] is listed as “A (0%≤ substrate protein remaining % ≤80%)”.

In experiment [1], `CC1(C)CCC(C(=O)N2CCCC(Sc3ccc4c(c3)CN(C3CCC(=O)NC3=O)C4=O)CC2)=C(c2ccc(Cl)cc2)C1` (stereo not shown) [GT-06642, 3-(5-((1-(4′-chloro-5,5-dimethyl-3,4,5,6-tetrahydro-[1,1′-biphenyl]-2-carbonyl)azepan-4-yl)thio)-1-oxoisoindolin-2-yl)piperidine-2,6-dione] registered an IC50 of 1000 to 1900 nM. The “substrate protein remaining %” value in experiment [3] and in experiment [4] was “A (0%≤ substrate protein remaining % ≤80%)” each time.

For the compound `O=C1CCC(N2Cc3cc(SC4CCCN(Cc5ccccc5-c5ccc(Cl)cc5)CC4)ccc3C2=O)C(=O)N1` (stereo not shown) [GT-06643, 3-(5-((1-((4′-chloro-[1,1′-biphenyl]-2-yl)methyl)azepan-4-yl)thio)-1-oxoisoindolin-2-yl)piperidine-2,6-dione], in experiment [1], the IC50 lay in the range of 1000 to 1900 nM. Further, the “substrate protein remaining %” value in experiment [2] and in experiment [3] was “A (0%≤ substrate protein remaining % ≤80%)” each time.

In experiment [1], `O=C1CCC(N2Cc3cc(OC4CN(C(c5ccccc5F)c5ccccc5F)C4)ccc3C2=O)C(=O)N1` (stereo not shown) [GT-06759, 3-(5-((1-(bis(2-fluorophenyl)methyl)azetidin-3-yl)oxy)-1-oxoisoindolin-2-yl)piperidine-2,6-dione] displayed an IC50 of less than 500 nM. Also, the “substrate protein remaining %” value in experiment [3] and in experiment [4] was “A (0%≤ substrate protein remaining % ≤80%)” each time.

`O=C1CCC(N2Cc3cc(SC4CC5(CCNCC5)C4)ccc3C2=O)C(=O)N1` (stereo not shown) [GT-06997, 3-(5-((7-azaspiro[3.5]nonan-2-yl)thio)-1-oxoisoindolin-2-yl)piperidine-2,6-dione] registered an IC50 in experiment [1] of 500 to 1000 nM. Moreover, the “substrate protein remaining %” value in experiment [3] and in experiment [4] was “A (0%≤ substrate protein remaining % ≤80%)” throughout.

With `O=C1CCC(N2Cc3cc(OC4CC5(CCNCC5)C4)ccc3C2=O)C(=O)N1` (stereo not shown) [GT-07005, 3-(5-((7-azaspiro[3.5]nonan-2-yl)oxy)-1-oxoisoindolin-2-yl)piperidine-2,6-dione], the IC50 in experiment [1] is 1000 to 1900 nM. In experiment [3], the “substrate protein remaining %” value is recorded as “A (0%≤ substrate protein remaining % ≤80%)”.
